Results: patent US20200016159A1, “N3-CYCLICALLY SUBSTITUTED THIENOURACILS AND USE THEREOF” (Bayer Aktiengesellschaft, priority 2016, published 2020)

Biological target: T1, human adenosine A2b receptor (Homo sapiens, UniProt P29275)
T1 sequence (P29275 1-332): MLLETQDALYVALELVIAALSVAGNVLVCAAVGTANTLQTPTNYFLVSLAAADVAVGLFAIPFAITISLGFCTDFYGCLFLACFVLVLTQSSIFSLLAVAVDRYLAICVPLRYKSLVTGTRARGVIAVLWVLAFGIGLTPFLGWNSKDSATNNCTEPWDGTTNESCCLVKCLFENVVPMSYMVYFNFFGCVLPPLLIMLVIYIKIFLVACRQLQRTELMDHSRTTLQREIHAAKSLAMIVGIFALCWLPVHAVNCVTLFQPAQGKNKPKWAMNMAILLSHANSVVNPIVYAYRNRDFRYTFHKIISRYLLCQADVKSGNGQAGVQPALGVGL
Assay: Cellular in vitro reporter gene test for A2b receptor activity (antagonism of NECA)
Type: cell-based
Set-up: expressed in transfected cells; host or cells: CHO-K1 (Chinese hamster ovary) with CRE-luciferase reporter
Conditions: recombinant CHO-K1 cells, CRE-luciferase reporter, co-incubation with EC50 concentration of NECA, 3 hours
Method: The identification of selective antagonists of the human adenosine A2b receptor and the quantification of the efficacy and selectivity of the compounds according to the invention was carried out with the aid of recombinant cell lines for the human adenosine receptors A1, A2a, A2b and A3. These cell lines were originally derived from an ovarepithelial cell of the hamster (Chinese Hamster Ovary, CHO-K1, American Type Culture Collection, Manassas, Va. 20108, USA). In addition to the respective recombinantly expressed adenosine receptor for testing the efficacy at the A1, A2a and A2b receptors, the cell lines contain a reporter gene construct where expression of the firefly (Photinus pyralis) luciferase is under the control of a promoter which can be activated via intracellular signal cascades by stimulation of the receptors with the (not subtype-selective) adenosine receptor agonist NECA (5′-N-ethylcarboxamidoadenosine) [S. J. Hill, J. G. Baker, S. Rhees, Curr. Opin. Pharmacol. 1, 526-532 (2001)].
In the case of the A2a and A2b cell lines, this is a minimal promoter having a plurality of cAMP-responsive elements (CRE). Stimulation of the Gs-coupled A2b or A2a receptors by NECA ultimately leads, via formation of cAMP, to CRE-dependent induction of luciferase expression, which is detected 3 hours after the start of the incubation with NECA using a detection solution in a suitable luminometer. For testing the antagonists, initially, in a pre-experiment, the concentration of NECA which, at the test day in question, results in half-maximum stimulation of luciferase expression (EC50 concentration) is determined. By joint incubation of this EC50 concentration of NECA with the substances to be tested, it is possible to determine their antagonistic activity.
Table 1 below lists the IC50 values from the A2b receptor assay for individual working examples (in some cases as means of a plurality of independent individual determinations and rounded to two significant figures; it may also be the case here that various independent preparations of the respective working example have been used): […]

| SMILES | IC50 |
| --- | --- |
| Cc1c(CN2CCNC2=O)sc2c1c(=O)n(C1CC1)c(=O)n2CC1CC1(F)F (racemic) [Example 19, 3-Cyclopropyl-1-[(2,2-difluorocyclopropyl)methyl]-5-methyl-6-[(2-oxoimidazolidin-1-yl)methyl]thieno[2,3-d]pyrimidine-2,4(1H,3H)-dione (racemate)] | 19 nM |
| COCCn1c(=O)n(C2CCC2)c(=O)c2c(C)c(CN3CCNC3=O)sc21 [Example 115, 3-Cyclobutyl-1-(2-methoxyethyl)-5-methyl-6-[(2-oxoimidazolidin-1-yl)methyl]thieno[2,3-d]pyrimidine-2,4(1H,3H)-dione] | 4.3 nM |
| COCCn1c(=O)n(C2CCCC2)c(=O)c2c(C)c(CN3CCNC(=O)C3=O)sc21 [Example 192, 3-Cyclopentyl-6-[(2,3-dioxopiperazin-1-yl)methyl]-1-(2-methoxyethyl)-5-methylthieno[2,3-d]pyrimidine-2,4(1H,3H)-dione] | 140 nM |
| CCCn1c(=O)n([C@H]2C[C@@H]2C)c(=O)c2c(C)c(Cn3nc[nH]c3=O)sc21 [Example 317, 5-Methyl-3-[(1S,2S)-2-methylcyclopropyl]-6-[(5-oxo-4,5-dihydro-1H-1,2,4-triazol-1-yl)methyl]-1-propylthieno[2,3-d]pyrimidine-2,4(1H,3H)-dione] | 19 nM |
| COCCn1c(=O)n(C2(C(F)(F)F)CC2)c(=O)c2c(C)c(CN3CCNC3=O)sc21 [Example 85, 1-(2-Methoxyethyl)-5-methyl-6-[(2-oxoimidazolidin-1-yl)methyl]-3-[1-(trifluoromethyl)cyclopropyl]thieno[2,3-d]pyrimidine-2,4(1H,3H)-dione] | 310 nM |

Results, then the compound that gave them:

| IC50 | SMILES |
| --- | --- |
| 32 nM | Cc1c(CN2CCNC2=O)sc2c1c(=O)n(C1CC1(C)C)c(=O)n2CCC(F)(F)F (single isomer, unassigned) [Example 101, 3-(2,2-Dimethylcyclopropyl)-5-methyl-6-[(2-oxoimidazolidin-1-yl)methyl]-1-(3,3,3-trifluoropropyl)thieno[2,3-d]pyrimidine-2,4(1H,3H)-dione] |
| 1.3 nM | Cc1c(CN2CCNC2=NC#N)sc2c1c(=O)n(C1CC1C)c(=O)n2CCOC(F)(F)F (single isomer, unassigned) [Example 265, [1-({5-Methyl-3-(2-methylcyclopropyl)-2,4-dioxo-1-[2-(trifluoromethoxy)ethyl]-1,2,3,4-tetrahydrothieno[2,3-d]pyrimidin-6-yl}methyl)imidazolidin-2-ylidene]cyanamide] |
| 1.5 nM | COC(=O)N=C1NCCN1Cc1sc2c(c1C)c(=O)n(C1CC1C)c(=O)n2CCOC(F)(F)F (single isomer, unassigned) [Example 268, Methyl [1-({5-methyl-3-(2-methylcyclopropyl)-2,4-dioxo-1-[2-(trifluoromethoxy)ethyl]-1,2,3,4-tetrahydrothieno[2,3-d]pyrimidin-6-yl}methyl)imidazolidin-2-ylidene]carbamate] |
| 1.4 nM | Cc1c(Cn2cc[nH]c2=O)sc2c1c(=O)n(C1CC1C)c(=O)n2CCOC(F)(F)F (single isomer, unassigned) [Example 271, 5-Methyl-3-(2-methylcyclopropyl)-6-[(2-oxo-2,3-dihydro-1H-imidazol-1-yl)methyl]-1-[2-(trifluoromethoxy)ethyl]thieno[2,3-d]pyrimidine-2,4(1H,3H)-dione] |
| 3.5 nM | Cc1c(CN2CCNC2=O)sc2c1c(=O)n(C1CC1C)c(=O)n2CCC(F)(F)C(F)F (single isomer, unassigned) [Example 247, 5-Methyl-3-(2-methylcyclopropyl)-6-[(2-oxoimidazolidin-1-yl)methyl]-1-(3,3,4,4-tetrafluorobutyl)thieno[2,3-d]pyrimidine-2,4(1H,3H)-dione] |
| 2.4 nM | Cc1c(CN2CCNC2=O)sc2c1c(=O)n(C1CC1C)c(=O)n2CCC(F)(F)F (single isomer, unassigned) [Example 240, 5-Methyl-3-(2-methylcyclopropyl)-6-[(2-oxoimidazolidin-1-yl)methyl]-1-(3,3,3-trifluoropropyl)thieno[2,3-d]pyrimidine-2,4(1H,3H)-dione] |
